Source: patent US11974992B2, “Use of serotonin 5-HT1A receptor agonists to treat diseases associated with sudden unexpected death in epilepsy” (Neurolixis, priority 2022, dated 2024)
“Also recorded” adds a separate entry of the source.

Columns and labels:
[1] = tested on: mouse model of the Rett syndrome; details: cited from earlier work
wild-type male CF-1 mice = assay: Seizures induced by corneal electrical stimulation (CES, 6 Hz, 44 mA); assay type: in vivo, mouse
Procedure: Seizures Induced by Corneal Electrical Stimulation (CES) in Wild-Type Mice
Experiments were carried out in accordance with the National Institute of Neurological Disorders and Stroke (NINDS) Epilepsy Therapy Screening Program (https://panache.ninds.nih.gov/TestDescription/Test6HZ). The CES test was carried out using wild-type male CF-1 mice. Seizures were induced by a low frequency (6 Hz, 0.2 msec rectangular pulse), long-duration (3 sec), 44 mA current (double the current producing seizures in 97% of animals) delivered through corneal electrodes (Barton M E, Klein B D, Wolf H H, White H S. Pharmacological characterization of the 6 Hz psychomotor seizure model of partial epilepsy. Epilepsy Res. 2001; 47:217-27). A drop of 0.5% tetracaine hydrochloride in 0.9% saline (anesthetic/electrolyte) solution was applied to the eyes just prior to the placement of corneal electrodes. The seizure in mice is characterized by an initial momentary stun followed immediately by jaw clonus, forelimb clonus, twitching of the vibrissae, and “Straub tail”. Animals not displaying this behavior within the one-minute observation period are considered “protected” from seizures.
Testing for anti-seizure activity in the CES model was performed with 4 male mice/dose/time point. […] of NLX-101 (0.02, 0.06, 0.5, 1 and 2 mg/kg i.p.) and two timepoints (30 and 120 min after drug administration) were tested.

wild-type male mice = assay: Maximal electroshock seizure (MES) test; assay type: in vivo, mouse; details: 0.02 to 2 mg/kg i.p., 30 and 120 min post-injection
Procedure: Seizures Induced in the Maximal Electroshock Seizure (MES) Test
Experiments were carried out in accordance with the National Institute of Neurological Disorders and Stroke (NINDS) Epilepsy Therapy Screening Program (https://panache.ninds.nih.gov/TestDescription/TestMES). The MES test was carried out using wild-type male mice. MES is a model for generalized tonic-clonic seizures and provides an indication of a compound's ability to prevent seizure spread when all neuronal circuits in the brain are maximally active (White H S, Johnson M, Wolf H H, Kupferberg H J. The early identification of anticonvulsant activity: role of the maximal electroshock and subcutaneous pentylenetetrazol seizure models. Ital J Neurol sci. 1995; 16:73-7). These seizures are highly reproducible and are electrophysiologically consistent with human seizures. Seizures were induced by a high frequency (60 Hz) of alternating current at 50 mA over a short duration (0.2 sec) delivered through corneal electrodes. Prior to stimulation, corneas were irrigated with 0.5% tetracaine hydrochloride for local anesthesia and 0.9% saline to improve electrical conductivity. Seizures induced by MES are characterized by tonic extension of forelimbs and hindlimbs that is followed by brief episodes of clonic activity of the forelimbs and hindlimbs. […]

FMR1 knock-out (KO) mice = assay: Audiogenic tonic-clonic seizures (TCS) in FMR1 transgenic mice; assay type: in vivo, mouse
Procedure: Audiogenic Tonic-Clonic Seizures (TCS) in FMR1 Transgenic Mice
FMR1 knock-out (KO) mice were bred and weaned at postnatal day 21 (P21), and all mice were tested between P21 to P23. NLX-101 was administered at doses of 0.6, 1.2, 1.8 and 2.4 mg/kg i.p. Control FMR1 KO mice received saline. NLX-101 or saline was injected 10 min before subjecting the mice to the auditory stimulus.
To differentiate each mouse for post-hoc video analysis, mice were color coded prior to drug or saline administration. Mice (up to 4/cage) were then put in a cage with a lid; after 10 min, a speaker was placed on top of the lid, and the cage placed in a sound attenuation booth (Gretch-Ken Inc., OR); the auditory stimulus was a continuously alternating up and down frequency modulated sweep with frequencies between 2-8 kHz, presented at an intensity between 105-110 dB for 15 min. The procedure lasted a total of 20 min starting with 5 min of habituation (without a sound stimulus). The full 20-min procedure was video recorded for off-line analysis.
The typical behavior of FMR1 knock-out mice subjected to loud audio stimulus includes tonic-clonic seizures (TCS: the mouse lays on the cage bottom with hindlimb extension), and death by respiratory arrest (manifested by a deep respiratory gasp and relaxation of pinna).
The latency time (from the stimulus onset) to the occurrence of TCS and death were recorded with a stopwatch (precision: 1 sec). Survival analysis was used to analyze the probability of TCS or death by log-rank test.

humans = details: cited from earlier work

| SMILES | respiratory abnormalities [1] | anti-seizure activity in the CES test (wild-type male CF-1 mice; 0.02 to 2 mg/kg i.p., 30 and 120 min) | mice with reduced seizure occurrence in the CES test (wild-type male CF-1 mice; highest dose tested (2 mg/kg i.p.), 30 min post injection) | occurrence of seizures in the MES test (wild-type male mice) | number of FMR1 knock-out mice that died (FMR1 knock-out (KO) mice; 0.6-2.4 mg/kg i.p., 10 min before auditory stimulus, significant effects at 1.2, 1.8 and 2.4 mg/kg) | percentage of FMR1 knock-out mice displaying tonic-clonic seizures (FMR1 knock-out (KO) mice; 0.6-2.4 mg/kg i.p., 10 min before auditory stimulus, significant effects at 1.8 and 2.4 mg/kg) | mice protected from death (FMR1 knock-out (KO) mice; audiogenic tonic-clonic seizure model in FMR1 knock-out mice) | seizures in humans (humans) |
| --- | --- | --- | --- | --- | --- | --- | --- | --- |
| Cc1cnc(CNCC2(F)CCN(C(=O)c3ccc(F)c(Cl)c3)CC2)nc1 [NLX-101] | improves the respiratory abnormalities | did not exhibit any anti-seizure activity | 1 out of 4 | did not exhibit any anti-seizure activity; also recorded: did not affect the occurrence of seizures | dose-dependently reduced | potently and efficaciously reduced seizures; also recorded: dose-dependently reduced | over 75% | – |
| N#Cc1ccc2[nH]cc(CCCCN3CCN(c4ccc5oc(C(N)=O)cc5c4)CC3)c2c1 [vilazodone] | – | – | – | – | – | – | – | induces seizures |
